US5110976A, “Insecticidal composition comprising more than one active ingredient” (priority 1985, dated 1992)
≈ marks a conversion by molar mass, not a printed value.

Key:
[1] = test system: Musca domestica; assay: Filter paper disc contact test (Table 11); assay type: in vivo, house fly (Musca domestica); settings: Musca domestica, 24 h
Procedure: In Table 1 the activity of various stereoisomers of cypermethrin on the house fly (Musca domestica) is shown.
(§1) The active ingredient is dissolved in a 1:2 mixture of oil and acetone; filter paper discs (Whatman No. 1, diameter 9 cm) are impregnated with the solutions of the corresponding stereoisomers and enantiomer-pairs, respectively. The acetone is allowed to evaporate, whereupon the insects are exposed to filter papers discs placed in Petri-dishes. Three parallels are used on each dose and 15 insects are placed into each Petri-dish. The percental mortality is determined after 24 hours. The corrected percent mortality is calculated by means of the Abbot Formula.

[2] = test system: Tribolium confusum; assay: Contact test on Tribolium confusum (Table 12); assay type: in vivo
Procedure: as §1
It appears from Table 12 that the increased activity shown in Example 41 is due to the synergistic effect of the trans-isomers to Tribolium confusum.

[3] = test system: Tribolium confusum; assay: Contact test, mixtures of Ia and Ib of various ratio (Table 13); assay type: in vivo, flour beetle (Tribolium confusum); settings: Tribolium confusum, 24 h
Procedure: as §1
In Table 13 the insecticidal effect of mixtures of enantiomer-pairs Ia and Ib of various ratio is shown on flour beetle (Tribolium confusum). The test method is that disclosed in Example 43.

[4] = test system: Colorado potato beetle; assay: Topical test on Colorado potato beetle (Table 14); assay type: in vivo, Colorado potato beetle (Leptinotersa decemlineata), imago; settings: Leptinotarsa decemlineata, topical
Procedure: In Table 14 the activity on Colorado potato beetle is shown.
The test materials are dissolved in 2-ethoxyethanol (Cellosolve). One 0.3 μl drop of the solution is applied to the abdominal sterna of the imago. The treatment is carried out by using 2 parallels and 10 insects for each dose. […]

[5] = test system: Acanthoscelides obtectus; assay: Comparative contact test (Table 15); assay type: in vivo, bean weevil (Acanthoscelides obtectus), imago
Procedure: as §1
(§2) The comparative test of Ia, Ib and a 40:60 mixture of Ia:Ib is carried out on bean weevil (Acanthoscelides obtectus), flour-beetle, (Tribolium confusum), house fly (Musca domestica) and sheep maggot fly (Lucillia sericata). The test method described is Example 41.

[6] = test system: tribolium confusum; assay: Comparative contact test (Table 15); assay type: in vivo, flour-beetle (Tribolium confusum), imago; settings: 24 h
Procedure: as §1, §2

[7] = test system: Musca domestica; assay: Comparative contact test (Table 15); assay type: in vivo, house fly (Musca domestica), imago; settings: 24 h
Procedure: as §1, §2

[8] = test system: Lucillia sericata; assay: Comparative contact test (Table 15); assay type: in vivo, sheep maggot fly (Lucillia sericata), imago; design: key: % mortality after 24 h, Abbott-corrected; settings: 1440 min
Procedure: as §1, §2

[9] = test system: T. confusum; assay: Activity as function of time, toxic symptoms (Table 16); assay type: in vivo, flour beetle (T. confusum), imagos
Procedure: as §1
Activity of cypermethrin stereoisomer-pairs as function of time on flour beetle (T. Confusum).
Flour beetle (T. confusum) imagos are exposed in Petri-dishes according to the method described in Example 43. For each dose 3 parallels are used and 15 animals are applied for each parallel test. In each point of time the insects lying on their backs are counted and the percental results are expressed in Table 16.

[10] = test system: Hyphantria cunea; assay: Topical test on fall webworm (Table 18); assay type: in vivo, fall wetworm (Hyphantria cunea), L7-L8 larvae; settings: Hyphantria cunea, topical, 24 h
Procedure: The active ingredients are dissolved in 2-ethoxy-ethanol and the solutions are applied in the form of 0.2 μl droplets onto the back of fall wetworm (Hyphantria cunea) of L7 -L8 larvae stage. The treated worms are placed on strawberry leaves in Petri-dishes. The test is carried out by using […], 2 parallels and 10 insects for each dose. The killed worms are counted after 24 hours and the percental mortality rate is calculated.

[11] = test system: Tetranychus urticae; assay: Potter Tower spray on mite-infested leaves (Table 19); assay type: in vivo, mites (Tetranychus urticae); settings: Tetranychus urticae, 24 h, mortality after 24 hours; read-out: approx. LD50
Procedure: Leaves already infested with mites (Tetranychus urticae) were sprayed under Potter Tower. Mortality after 24 hours on the treated leaves was compared with the control.

CC1(C)[C@H](C=C(Cl)Cl)[C@H]1C(=O)O[C@H](C#N)c1cccc(Oc2ccccc2)c1 (relative stereo) [Ib]
mortality at 40 µg/disc ([1]; 0.04 mg/disc): 32%
mortality at 110 µg/disc ([1]; 0.11 mg/disc): 62%
mortality at 330 µg/disc ([1]; 0.33 mg/disc): 95%
mortality at 1000 µg/disc ([1]; 1.00 mg/disc): 100%
mortality at 3000 µg/disc ([1]; 3.00 mg/disc): 100%
mortality at 110 µg/disc ([2]; Tribolium confusum, 24 h, 0.11 mg/disc): 64%
mortality at 330 µg/disc ([2]; Tribolium confusum, 24 h, 0.33 mg/disc): 89%
mortality at 1000 µg/disc ([2]; Tribolium confusum, 24 h, 1.00 mg/disc): 100%
mortality at 3000 µg/disc ([2]; Tribolium confusum, 24 h, 3.00 mg/disc): 100%
synergism between the members of the enantiomer-pair ([2]; in vivo): synergism observed
mortality at 60 µg/disc ([3]; 0.06 mg/disc): 46%
mortality at 250 µg/disc ([3]; 0.25 mg/disc): 100%
mortality at 20 µg/disc ([3]; 0.02 mg/disc): 8%
mortality at 1000 µg/disc ([3]; 1.00 mg/disc): 100%
mortality at 0.05 µg/beetle ([4]; read-out: 24 hours' mortality %, 0.05 μg/beetle): 0%
mortality at 0.1 µg/beetle ([4]; read-out: 24 hours' mortality %, 0.10 μg/beetle): 25%
mortality at 0.2 µg/beetle ([4]; read-out: 24 hours' mortality %, 0.20 μg/beetle): 75%
mortality at 0.4 µg/beetle ([4]; read-out: 24 hours' mortality %, 0.40 μg/beetle): 85%
mortality at 20 µg/disc ([5]; Acanthoscelides obtectus, 24 h, 0.02 mg/disc): 32%
mortality at 70 µg/disc ([5]; Acanthoscelides obtectus, 24 h, 0.07 mg/disc): 55%
mortality at 220 µg/disc ([5]; Acanthoscelides obtectus, 24 h, 0.22 mg/disc): 87%
mortality at 670 µg/disc ([5]; Acanthoscelides obtectus, 24 h, 0.67 mg/disc): 100%
mortality at 2000 µg/disc ([5]; Acanthoscelides obtectus, 24 h, 2.0 mg/disc): 100%
mortality at 6000 µg/disc ([5]; Acanthoscelides obtectus, 24 h, 6.0 mg/disc): 100%
comparative activity ([5]; Example 47, further insect species, Ib versus Ia): more active than Ia
mortality at 20 µg/disc ([6]; 0.02 mg/disc): 14%
mortality at 70 µg/disc ([6]; 0.07 mg/disc): 73%
mortality at 220 µg/disc ([6]; 0.22 mg/disc): 100%
mortality at 670 µg/disc ([6]; 0.67 mg/disc): 100%
mortality at 2000 µg/disc ([6]; 2.0 mg/disc): 100%
mortality at 6000 µg/disc ([6]; 6.0 mg/disc): 100%
mortality at 20 µg/disc ([7]; 0.02 mg/disc): 0%
mortality at 70 µg/disc ([7]; 0.07 mg/disc): 18%
mortality at 220 µg/disc ([7]; 0.22 mg/disc): 67%
mortality at 670 µg/disc ([7]; 0.67 mg/disc): 100%
mortality at 2000 µg/disc ([7]; 2.0 mg/disc): 100%
mortality at 6000 µg/disc ([7]; 6.0 mg/disc): 100%
mortality ([8]; 0.02 mg/disc): 22
mortality ([8]; 0.07 mg/disc): 55
mortality ([8]; 0.22 mg/disc): 70
mortality ([8]; 0.67 mg/disc): 75
mortality ([8]; 2.0 mg/disc): 100
mortality ([8]; 6.0 mg/disc): 100
% of insects showing toxic symptoms ([9]; 30 minutes): 0%
% of insects showing toxic symptoms ([9]; 30 minutes, 0.33 mg/disc): 0%
% of insects showing toxic symptoms ([9]; 30 minutes, 1.00 mg/disc): 47%
% of insects showing toxic symptoms ([9]; 30 minutes, 3.00 mg/disc): 61%
% of insects showing toxic symptoms ([9]; 60 minutes): 0%
% of insects showing toxic symptoms ([9]; 60 minutes, 0.33 mg/disc): 21%
% of insects showing toxic symptoms ([9]; 60 minutes, 1.00 mg/disc): 82%
% of insects showing toxic symptoms ([9]; 60 minutes, 3.00 mg/disc): 100%
% of insects showing toxic symptoms ([9]; 120 minutes): 28%
% of insects showing toxic symptoms ([9]; 120 minutes, 0.33 mg/disc): 100%
% of insects showing toxic symptoms ([9]; 120 minutes, 1.00 mg/disc): 100%
% of insects showing toxic symptoms ([9]; 120 minutes, 3.00 mg/disc): 100%
% of insects showing toxic symptoms ([9]; 180 minutes): 56%
% of insects showing toxic symptoms ([9]; 180 minutes, 0.33 mg/disc): 100%
% of insects showing toxic symptoms ([9]; 180 minutes, 1.00 mg/disc): 100%
% of insects showing toxic symptoms ([9]; 180 minutes, 3.00 mg/disc): 100%
mortality at 0.023 µg/disc ([10]; 0.023 (μg/disc)): 10%
mortality at 0.047 µg/disc ([10]; 0.047 (μg/disc)): 15%
mortality at 0.094 µg/disc ([10]; 0.094 (μg/disc)): 30%
mortality at 0.188 µg/disc ([10]; 0.188 (μg/disc)): 70%
mortality at 0.375 µg/disc ([10]; 0.375 (μg/disc)): 80%
LC50 [11]: ~0.34 µg/mL (≈ 0.817 µM)
